In article PMC12206857 (Frontiers in Microbiology, 2025):
“Also recorded” adds a separate entry of the source. Where two headings read alike, the source gives them in different places. *1 amine or outer side, *2 acyl side, *3 side chain or, on linkers, in order; H or OH if unused. Where a SMILES comes first, the peptide text is derived from it. [ ]: non-standard residue; d: D form. X1 = CC(C)CCCCCCCCC[C@H](CC(=O)[*:2])N[*:1]

How the values were obtained:
F. graminearum cells = details: ref Liang et al., 2023; cited from earlier work
Fusarium oxysporum = details: 25 μg/mL or 50 μg/mL; ref Hua et al., 2023; cited from earlier work
F. graminearum conidia = details: ref Gong et al., 2015; cited from earlier work
pepsin = details: 5 mg/mL enzyme, 1 h, 37°C, stopped 10 min at 100°C; read-out antifungal activity against F. graminearum by filter paper method; n = 3
F. graminearum [1] = details: mixture of bacillomycin D with different fatty acid chain lengths; ref Gu et al., 2017; cited from earlier work
F. graminearum [2] = format: in vivo, Fusarium graminearum on corn seeds; details: seeds soaked in 64 μg/mL, sprayed with spores 1 × 10^5 CFU/mL, 28°C, 10 seeds per group
F. graminearum [3] = format: physicochemical, Fusarium graminearum; details: filter paper method; for Effect of divalent cations Fe2+, Mg2+, Ca2+ on antifungal activity: 10 nM metal ion; for Thermal stability of antifungal activity: 25°C, 50°C, 100°C water for 30 min
F. graminearum hyphae = format: cell-based, Fusarium graminearum; details: 16 and 32 μg/mL, 12 h in PDB at 28°C
DON and ZEN = test system: DON and ZEN; design: species or system Fusarium graminearum on corn seeds; details: in vivo
proteinase K = proteinase K (Parengyodontium album, UniProt P06873); details: n = 3
trypsin = details: 5 mg/mL enzyme, 1 h, 37°C, stopped 10 min at 100°C; read-out antifungal activity against F. graminearum by filter paper method; n = 3
F. graminearum [4] = format: cell-based, Fusarium graminearum; details: DiSC3(5) fluorescence
papain = target: T1, papain (Carica papaya, UniProt P00784); details: n = 3
T1 sequence (P00784 134-345): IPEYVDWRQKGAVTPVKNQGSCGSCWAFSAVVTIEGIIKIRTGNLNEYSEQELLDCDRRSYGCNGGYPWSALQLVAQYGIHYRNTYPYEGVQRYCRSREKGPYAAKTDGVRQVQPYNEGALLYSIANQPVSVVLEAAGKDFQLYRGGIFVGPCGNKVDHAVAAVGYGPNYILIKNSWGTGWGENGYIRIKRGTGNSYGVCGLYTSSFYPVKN

F. graminearum [5] = format: cell-based, Fusarium graminearum; details: dose-dependent, DCFH-DA fluorescence

Sequence of proteinase K (P06873 106-384): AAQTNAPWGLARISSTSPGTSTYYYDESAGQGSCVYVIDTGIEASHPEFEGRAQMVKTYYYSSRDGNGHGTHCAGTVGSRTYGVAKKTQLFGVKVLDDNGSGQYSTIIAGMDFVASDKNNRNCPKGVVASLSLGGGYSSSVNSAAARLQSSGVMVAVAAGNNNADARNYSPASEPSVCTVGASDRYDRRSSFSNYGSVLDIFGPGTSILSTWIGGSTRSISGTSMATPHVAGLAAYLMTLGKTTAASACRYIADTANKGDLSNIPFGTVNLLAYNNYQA

Molecule: surfactin
- Intracellular ROS accumulation in F. graminearum cells (F. graminearum cells): induce intracellular ROS accumulation

Molecule: iturin A
- Cell membrane integrity of Fusarium oxysporum (Fusarium oxysporum): disrupted
- ROS in Fusarium oxysporum (Fusarium oxysporum): significantly increased
- MIC, complete killing of F. graminearum conidia (F. graminearum conidia): 50 µg/mL

Molecule: CC(C)CCCCCCCCC[C@@H]1CC(=O)N[C@@H](CC(N)=O)C(=O)N[C@H](Cc2ccc(O)cc2)C(=O)N[C@H](CC(N)=O)C(=O)N2CCC[C@H]2C(=O)N[C@@H](CCC(=O)O)C(=O)N[C@H](CO)C(=O)N[C@@H]([C@@H](C)O)C(=O)N1 [bacillomycin D, C15-bacillomycin D] (cyclo([X1]N[dY][dN]PE[dS]T))
- Activity after treatment with pepsin (pepsin): retained their activity
- Half-inhibitory concentration (IC50) on F. graminearum (F. graminearum [1]): approximately 30 μg/mL
- Infection of maize seeds by F. graminearum (F. graminearum [2]): completely preventing infection
- Stability of antifungal activity in the presence of metal ions (F. graminearum [3]; 10 nM Na+, K+, Ca2+, Mg2+, Cu2+, Fe2+, Fe3+, room temperature, 2.5 mg/mL, n = 3): retained stable antibacterial activity
- Effect of divalent cations Fe2+, Mg2+, Ca2+ on antifungal activity (F. graminearum [3]; room temperature, 2.5 mg/mL, n = 3): enhance their antifungal activity
- Effect of divalent cations Fe2+, Mg2+, Ca2+ on antifungal activity (F. graminearum [3]; room temperature, 2.5 mg/mL, n = 3, listed as eumelanin): significantly enhanced
- Thermal stability of antifungal activity (F. graminearum [3]; 7 μL of 2.5 mg/mL, colony diameter after 24 h at 28°C, n = 3): remains stable
- Thermal stability of antifungal activity (F. graminearum [3]; 7 μL of 2.5 mg/mL, colony diameter after 24 h at 28°C, n = 3, listed as Bacillomycin D): maintained stable antibacterial activity
- Antifungal activity across pH range 2–12 (F. graminearum [3]; pH 2–12, room temperature): maintains good antifungal activity
- pH stability of antifungal activity, pH 8 or 10 (F. graminearum [3]; pH 8 or 10 (pH 8–10), room temperature, 7 μL of 2.5 mg/mL, colony diameter after 24 h at 28°C, n = 3): significant enhancement of antibacterial activity; also recorded: significant increase in antifungal activity
- pH stability of antifungal activity, pH 14 (F. graminearum [3]; pH 14, room temperature, 2.5 mg/mL, n = 3): complete loss of activity
- pH stability of antifungal activity, other pH conditions (F. graminearum [3]; pH values from 2 to 14 other than 8, 10 and 14, room temperature, 2.5 mg/mL, n = 3): the activity remained stable
- Hyphal morphology by SEM (F. graminearum hyphae): induced abnormal development
- DON toxin synthesis in treated maize seeds (DON and ZEN): no detectable synthesis
- ZEN toxin synthesis in treated maize seeds (DON and ZEN): no detectable synthesis
- Activity after treatment with proteinase K (proteinase K): retained their activity
- Activity after treatment with trypsin (trypsin): retained their activity
- Cell membrane potential (in words) (F. graminearum [4]): induced depolarization
- Activity after treatment with papain (papain): retained their activity
- ROS levels in F. graminearum cells (in words) (F. graminearum [5]): induced abnormal ROS accumulation
